Results taken from ChEMBL document CHEMBL2321780, “Fluorinated quinazolinones as potential radiotracers for imaging kinesin spindle protein expression” (2013).
Active and inactive are the calls of the source. The rule behind the calls is not given here.

Legend:
SK-OV-3 [1] = assay: Cytotoxicity against human SKOV3 cells assessed as inhibition of KSP-mediated cell cycle progression after 44 hrs by MTT assay; type: functional; conditions: SK-OV-3, 44 h
SK-OV-3 [2] = assay: Cell cycle arrest in human SKOV3 cells assessed as phospho-histone3 level at 100 nM after 24 hrs by immunostaining analysis; type: functional
SK-OV-3 [3] = assay: Cell cycle arrest in human SKOV3 cells assessed as monoaster phenotype at 100 nM after 22 hrs by confocal microscopic analysis; type: functional, cell-based
SK-OV-3 [4] = assay: Cytotoxicity against human SKOV3 cells assessed as inhibition of KSP-mediated cell cycle progression after 44 hrs by BrdU incorporation assay; type: functional; conditions: SK-OV-3, 44 h
SK-OV-3 [5] = assay: Nonspecific cytotoxicity against human SKOV3 cells after 44 hrs by BrdU incorporation assay; type: functional; conditions: SK-OV-3, 44 h
SK-OV-3 [6] = assay: Cell cycle arrest in human SKOV3 cells assessed as absence of normal mitotic stages at 100 nM after 24 hrs by confocal microscopic analysis; type: functional, cell-based
SK-OV-3 [7] = assay: Cell cycle arrest in human SKOV3 cells assessed as monoaster phenotype at 100 nM after 24 hrs by confocal microscopic analysis; type: functional, cell-based

Q: For `CC(C)C(c1nc2cc(Cl)ccc2c(=O)n1Cc1ccccc1)N(CCCN)C(=O)c1cccc(F)c1` (racemic), which GI50 (SK-OV-3 [1]) is on record?
A: The GI50 was 15.6 nM.

Q: `CC(C)[C@@H](c1nc2cc(Cl)ccc2c(=O)n1Cc1ccccc1)N(CCCN)C(=O)c1ccc(F)cc1` was tested. Which Activity (SK-OV-3 [2]) did it give?
A: Its Activity is 2.6%.

Q: How did the GI50 (SK-OV-3 [1]) turn out when `CC(C)[C@H](c1nc2cc(Cl)ccc2c(=O)n1Cc1ccccc1)N(CCCN)C(=O)c1ccccc1F` was run?
A: The GI50 was 34.8 nM.

Q: What about the Activity (SK-OV-3 [3]) of the same compound?
A: Its Activity is “Active”.

Q: How did the GI50 (SK-OV-3 [4]) turn out when `CC(C)[C@H](c1nc2cc(Cl)ccc2c(=O)n1Cc1ccccc1)N(CCCN)C(=O)c1ccc(F)cc1` was run?
A: The GI50 was 0.01 nM.

Q: And the GI50 (SK-OV-3 [5])?
A: Its GI50 is 61000 nM.

Q: And the Activity (SK-OV-3 [3])?
A: Its Activity is “Active”.

Q: What about the Activity (SK-OV-3 [6]) of the same compound?
A: The Activity was “Active”.

Q: And the Activity (SK-OV-3 [7])?
A: The Activity was “Active”.

Q: What about the Activity (SK-OV-3 [2]) of the same compound?
A: The Activity was 58.8%.
